From patent US8415299B2, “Methods for improved avian performance” (priority 2004, dated 2013)
Where two headings read alike, the source gives them in different places. Marks after values point to notes of the source that are not given here.

Tests used:
[1] = tested on: 66-week-old caged laying hens; settings: cited from earlier work
[2] = tested on: laying hens; settings: cited from earlier work
[3] = tested on: Bovans caged laying hens; assay: Experiment 6: molting of caged laying hens with dietary L-thyroxine or thyroactive iodinated casein; assay type: in vivo, chickens; settings: for 9 Jun. 2005 (9th d Trt) Body Wt Change: 10 hours of light daily; for 25 May 2005 Initial Body Wt: before 7-day pretest
Description: Experiment 6. Molting of Caged Laying with Dietary L-Thyroxine or Thyroactive Iodinated Casein
In Experiment 6, a conventional feed withdrawal molting procedure was compared with 5 dietary thyroxine treatments. Body weight loss after 9 days was greater, days to 0% egg production (9 days) shorter, ovary plus oviduct weight numerically lighter on day 9 of treatment, but eggs collected on day 4 of treatment had thinner shells, in the feed withdrawal group.

[4] = tested on: 102-week old Hy-Line W-36 White Leghorn hens
Description: Experiment 2. […] The photoperiod was 17 hours of light per day (0330 hours to 2030 hours).
The objective was to use T4 to humanely induce molting in hens that are continuously provided with ad libitum access to palatable feed meeting or exceeding all National Research Council (1994) standards. Developing a fully efficacious yet affordable molting protocol was predicated on determining the minimum effective level for T4 supplementation. Factors that potentially may affect the required level of T4 supplementation include: (1) uncertainty regarding the efficiency of T4 absorption by the gastrointestinal tract, (2) the possibility that continuous dietary ingestion of T4 could trigger substantially different biological responses when compared single daily injections, and (3) the likelihood that daily T4 intake would diminish in parallel with molt-related reductions in feed intake associated with cessation in egg production. A spontaneous and voluntary loss of appetite (anorexia) commonly accompanies seasonal molting and broodiness in a variety of avian species (Berry, 2003; Webster, 2003). Accordingly, the responses of hens to diets containing 10, 20, and 40 mg T4/kg, to bracket the anticipated range of T4 needed to cause an effective molt, were determined.

[5] = tested on: turkey breeder hens; assay: Experiment 7: molting of turkey breeder hens with dietary L-thyroxine, porcine thyroid powder or thyroactive iodinated casein, 10 days; assay type: in vivo; settings: 10, 20, or 40 mg T4/kg diet
Description: Experiment 7. Molting of Turkey Breeder Hens with Dietary L-Thyroxine, PorcineThyroid Powder, or Thyroactive Iodinated Casein. Turkey breeder hens were molted with various dietary thyroxine treatments at Diamond K Research, […]. (Jun. 20-Jul. 1, 2005).

[6] = 40 mg T4/kg test diet for 10 days

N[C@@H](Cc1cc(I)c(Oc2cc(I)c(O)c(I)c2)c(I)c1)C(=O)O [L-thyroxine, 3,5,3′,5′-tetraiodothyronine]
Days to target body weight (30% body weight loss) ([1]; 10 mg/kg feed in grape pomace diet after 1-day feed withdrawal): 16 days | Days to target body weight (30% body weight loss) ([1]; corn diet with or without 10 mg/kg, 1-day fast or no fast): 28 days | Effect on egg production and molting ([2]; 0.2 mg per hen for 21 consecutive days (Szelenyi and Peczely 1988)): diminished egg production but did not result in molting | Mortality ([2]; injected, e.g. 243 micrograms/100 g body weight, White Leghorn hens 7 months of age (Miller et al. 1962)): 47% | 9 Jun. 2005 (9th d Trt) Body Wt Change ([3]; 20 mg T4/kg diet): −0.50^b lb | 25 May 2005 Initial Body Wt ([3]; 20 mg T4/kg diet): 3.49 lb | Days to 0% egg production ([3]; 40 mg T4/kg diet): 11 days | Weight loss ([3]; 40 mg T4/kg diet): −0.54 lb | 9 Jun. 2005 (9th d Trt) Body Wt Change ([3]; 40 mg T4/kg diet): −0.60^b lb | 25 May 2005 Initial Body Wt ([3]; 40 mg T4/kg diet): 3.57 lb | Time to onset of molt after T4 feeding was initiated ([4]; 10 mg T4 kg Group, 10 days on test diets, half of the hens): 11 days | Feed consumption change from days 2-4 (% FCC) ([4]; 10 mg/kg feed 6 d, Day 11-14): −19.7% | Feed consumption (FC) ([4]; 10 mg/kg feed 6 d, Days 2-4 (pre-treatment)): 101.3 g/hen/d | Feed consumption (FC) ([4]; 10 mg/kg feed 6 d, Days 5-7): 60.0 g/hen/d | Feed consumption change from days 2-4 (% FCC) ([4]; 10 mg/kg feed 6 d, Days 5-7): −40.8% | Feed consumption (FC) ([4]; 10 mg/kg feed 6 d, Days 8-10): 35.3 g/hen/d | Feed consumption change from days 2-4 (% FCC) ([4]; 10 mg/kg feed 6 d, Days 8-10): −65.2% | Feed consumption (FC) ([4]; 10 mg/kg feed 10 d, Day 11-14): 47.3 g/hen/d | Feed consumption change from days 2-4 (% FCC) ([4]; 10 mg/kg feed 10 d, Day 11-14): −43.7% | Feed consumption (FC) ([4]; 10 mg/kg feed 10 d, Days 2-4 (pre-treatment)): 84.0 g/hen/d | Feed consumption (FC) ([4]; 10 mg/kg feed 10 d, Days 5-7): 56.0 g/hen/d | Feed consumption change from days 2-4 (% FCC) ([4]; 10 mg/kg feed 10 d, Days 5-7): −33.3% | Feed consumption (FC) ([4]; 10 mg/kg feed 10 d, Days 8-10): 33.7 g/hen/d | Feed consumption change from days 2-4 (% FCC) ([4]; 10 mg/kg feed 10 d, Days 8-10): −59.9% | Feed consumption (FC) ([4]; 20 mg/kg feed 6 d, Day 11-14): 73.7 g/hen/d | Feed consumption change from days 2-4 (% FCC) ([4]; 20 mg/kg feed 6 d, Day 11-14): −28.4% | Feed consumption (FC) ([4]; 20 mg/kg feed 6 d, Days 2-4 (pre-treatment)): 103.0 g/hen/d | Feed consumption (FC) ([4]; 20 mg/kg feed 6 d, Days 5-7): 42.0 g/hen/d | Feed consumption change from days 2-4 (% FCC) ([4]; 20 mg/kg feed 6 d, Days 5-7): −59.2% | Feed consumption (FC) ([4]; 20 mg/kg feed 6 d, Days 8-10): 33.7 g/hen/d | Feed consumption change from days 2-4 (% FCC) ([4]; 20 mg/kg feed 6 d, Days 8-10): −67.3% | Feed consumption (FC) ([4]; 20 mg/kg feed 10 d, Day 11-14): 32.7 g/hen/d | Feed consumption change from days 2-4 (% FCC) ([4]; 20 mg/kg feed 10 d, Day 11-14): −72.9% | Feed consumption (FC) ([4]; 20 mg/kg feed 10 d, Days 2-4 (pre-treatment)): 120.7 g/hen/d | Feed consumption (FC) ([4]; 20 mg/kg feed 10 d, Days 5-7): 54.7 g/hen/d | Feed consumption change from days 2-4 (% FCC) ([4]; 20 mg/kg feed 10 d, Days 5-7): −54.7% | Feed consumption (FC) ([4]; 20 mg/kg feed 10 d, Days 8-10): 30.0 g/hen/d | Feed consumption change from days 2-4 (% FCC) ([4]; 20 mg/kg feed 10 d, Days 8-10): −75.1% | Hen-day egg production ([4]; 20 mg/kg feed 10 d, day 4 (pre-treatment)): 75% | Hen-day egg production ([4]; 20 mg/kg feed 10 d, day 30): 25% | Loss of initial body weight [4, 6]: approximately 21% | Reduction of feed intake [4, 6]: approximately 85% | Feed consumption (FC) ([4]; 40 mg/kg feed 6 d, Day 11-14): 46.7 g/hen/d | Feed consumption change from days 2-4 (% FCC) ([4]; 40 mg/kg feed 6 d, Day 11-14): −52.5% | Feed consumption (FC) ([4]; 40 mg/kg feed 6 d, Days 2-4 (pre-treatment)): 98.3 g/hen/d | Feed consumption (FC) ([4]; 40 mg/kg feed 6 d, Days 5-7): 36.7 g/hen/d | Feed consumption change from days 2-4 (% FCC) ([4]; 40 mg/kg feed 6 d, Days 5-7): −62.7% | Feed consumption (FC) ([4]; 40 mg/kg feed 6 d, Days 8-10): 13.7 g/hen/d | Feed consumption change from days 2-4 (% FCC) ([4]; 40 mg/kg feed 6 d, Days 8-10): −86.1% | Hen-day egg production ([4]; 40 mg/kg feed 6 d, day 20): 25% | Hen-day egg production ([4]; 40 mg/kg feed 6 d, day 22): 25% | Hen-day egg production ([4]; 40 mg/kg feed 6 d, day 24): 50% | Feed consumption (FC) ([4]; 40 mg/kg feed 10 d, Day 11-14): 19.3 g/hen/d | Feed consumption change from days 2-4 (% FCC) ([4]; 40 mg/kg feed 10 d, Day 11-14): −83.4% | Feed consumption (FC) ([4]; 40 mg/kg feed 10 d, Days 2-4 (pre-treatment)): 116.3 g/hen/d | Feed consumption (FC) ([4]; 40 mg/kg feed 10 d, Days 5-7): 37.3 g/hen/d | Feed consumption change from days 2-4 (% FCC) ([4]; 40 mg/kg feed 10 d, Days 5-7): −67.9% | Feed consumption (FC) ([4]; 40 mg/kg feed 10 d, Days 8-10): 22.0 g/hen/d | Feed consumption change from days 2-4 (% FCC) ([4]; 40 mg/kg feed 10 d, Days 8-10): −81.1% | Hen-day egg production ([4]; 40 mg/kg feed 10 d, day 12): 0% | Hen-day egg production ([4]; 40 mg/kg feed 10 d, day 14): 0% | Hen-day egg production ([4]; 40 mg/kg feed 10 d, day 16): 0% | Hen-day egg production ([4]; 40 mg/kg feed 10 d, day 18): 0% | Hen-day egg production ([4]; 40 mg/kg feed 10 d, day 20): 0% | Mortality ([4]; 10, 20, 40 mg T4/kg feed, 6 or 10 days): No mortality occurred in any of the Groups | Time within which egg production was consistently reduced ([4]; 20 and 40 mg T4/kg feed): ≤ 4 days | Effectiveness at regressing reproductive tracts [5]: not as effective as porcine thyroid powder
